Source: US8106050B2, “Derivatives of pyrrolo-pyrazines having a kinase inhibitory activity and their biological applications” (Centre National de la Recherche Scientifique (C.N.R.S.), priority 2002, dated 2012)
Structures can show the parent of a compound that is named as a salt. Where two headings read alike, the source gives them in different places.

Assays:
CDK1/cyclin B = CDK1/cyclin B kinase assay (histone H1, 15 μM ATP); format: biochemical, starfish (Marthasterias glacialis); conditions: 15 μM ATP, Table 1
Method: (§1) Blank values were subtracted and activities calculated as pmoles of phosphate incorporated for a 10 min. incubation. […] Controls were performed with appropriate dilutions of dimethylsulfoxide. In a few cases phosphorylation of the substrate was assessed by autoradiography after SDS-PAGE.
CDK1/cyclin B was extracted in homogenisation buffer from M phase starfish (Marthasterias glacialis) oocytes and purified by affinity chromatography on p9^CKShs1-sepharose beads, from which it was eluted by free p9^CKShs1. […] ATP (3,000 Ci/mmol; 1 mCi/ml) in a final volume of 30 μl. After 10 min. incubation at 30° C., 25 μl aliquots of supernatant were spotted onto P81 phosphocellulose papers and treated as described above.
(§2) Kinases were assayed as above described in the presence of increasing concentrations of aloisines.

GSK-3α/β = assay: GSK-3 kinase assay (GS-1 peptide, 15 μM ATP); format: biochemical, porcine; conditions: read-out: IC50 GSK-3
Method: as §1
GSK-3α/β was either purified from porcine brain or expressed in and purified from insect Sf9 cells. […] ATP (3,000 Ci/mmol; 1 mCi/ml) in a final volume of 30 μl. After 30 min. incubation at 30° C., 25 μl aliquots of supernatant were spotted onto 2.5×3 cm pieces of Whatman P81 phosphocellulose paper, and, 20 sec. later, the filters were washed five times (for at least 5 min. each time) in a solution of 10 ml phosphoric acid/liter of water. The wet filters were counted in the presence of 1 ml ACS (Amersham) scintillation fluid.
as §2

CDK5/p25 = CDK5/p25 (Homo sapiens, UniProt Q00535); assay: CDK5/p25 kinase assay (histone H1, 15 μM ATP); format: biochemical, mammalian; conditions: Table 1
Chain of CDK5/p25 (Q00535 whole entry, species assumed): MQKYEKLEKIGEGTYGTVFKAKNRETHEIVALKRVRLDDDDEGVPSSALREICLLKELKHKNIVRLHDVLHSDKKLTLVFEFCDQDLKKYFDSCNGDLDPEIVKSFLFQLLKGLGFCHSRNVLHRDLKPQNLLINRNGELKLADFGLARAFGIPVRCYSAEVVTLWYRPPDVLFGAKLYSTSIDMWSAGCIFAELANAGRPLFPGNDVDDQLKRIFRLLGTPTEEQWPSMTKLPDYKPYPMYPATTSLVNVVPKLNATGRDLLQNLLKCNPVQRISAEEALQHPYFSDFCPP
Chain of CDK5/p25 (Q15078 99-307 partner limits assumed, species assumed): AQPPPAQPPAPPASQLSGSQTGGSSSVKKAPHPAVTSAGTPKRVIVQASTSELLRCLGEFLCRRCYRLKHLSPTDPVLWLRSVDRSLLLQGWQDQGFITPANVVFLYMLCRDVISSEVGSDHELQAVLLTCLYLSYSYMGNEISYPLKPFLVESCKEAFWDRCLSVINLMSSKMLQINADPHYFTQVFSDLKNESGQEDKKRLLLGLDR
Method: as §1
CDK5/p25 was reconstituted by mixing equal amounts of recombinant mammalian CDK5 and p25 expressed in E. coli as GST (Glutathione-S-transferase) fusion proteins and purified by affinity chromatography on glutathione-agarose (p25 is a truncated version of p35, the 35 kDa CDK5 activator). Its activity was assayed in buffer C as described for CDK1/cyclin B.
as §2

Row | SMILES | IC50 (CDK1/cyclin B) | IC50 (GSK-3α/β; 15 μM ATP, Table 1) | IC50 (CDK5/p25) | melting point | IC50 (GSK-3α/β)
1 | c1ccc(-c2cc3nccnc3[nH]2)nc1 [4 (RP13), 6-(2-Pyridyl)[5H]pyrrolo[2,3-b]pyrazine] | 21000 nM | 15000 nM | 53 µM | 233.1 °C | 
2 | Cn1c(-c2ccccc2)cc2nccnc21 [48 (RP22)] |  | > 100000 nM | 7 µM |  | 
3 | Cc1ccc(-c2cc3nccnc3[nH]2)cc1 [24 (RP78), 6-(4-Methylphenyl)[5H]pyrrolo[2,3-b]pyrazine] | 3000 nM | 2600 nM |  | 265.4 °C | 
4 | COc1ccccc1-c1cc2nccnc2[nH]1 [10 (RP9), 6-(2-Methoxyphenyl)[5H]pyrrolo[2,3-b]pyrazine] | 20000 nM | 3300 nM |  | 156.9 °C | 
5 | Br.CCCc1c(-c2ccc(O)cc2)[nH]c2nccnc12 [33 (RP132), 6-(4-Hydroxyphenyl)-7-propyl[5H]pyrrolo[2,3-b]pyrazine hydrobromide] | 25000 nM | 1800 nM |  | 244 °C (dec.) | 
6 | CCCCc1c(-c2ccc(Cl)cc2)[nH]c2nccnc12 [40 (RP108), 7-n-Butyl-6-(4-chlorophenyl)[5H]pyrrolo[2,3-b]pyrazine] | 200 nM | 5900 nM | > 100 µM | 200 °C | 
7 | COc1ccc(-c2c(C)c3nccnc3n2C2CCCCC2)cc1 [46 (RP98), 6-(4-Methoxyphenyl)-7-methylcyclohexyl[5H]pyrrolo[2,3-b]pyrazine] | 5000 nM | 6800 nM | > 100 µM |  | 
8 | Oc1ccc(-c2[nH]c3nccnc3c2CC2CC2)cc1 [43 (RP112), 6-(4-Hydroxyphenyl)-7-methylcyclopropyl[5H]pyrrolo[2,3-b]pyrazine hydrobromide] | 50000 nM | 3000 nM | > 100 µM |  | 
9 | CCCCCCCc1c(-c2ccc(OC)cc2)[nH]c2nccnc12 [41 (RP111), 7-n-Heptyl-6-(4-methoxyphenyl)[5H]pyrrolo[2,3-b]pyrazine] | 7000 nM | > 10000 nM | > 100 µM | 132.5 °C | 
10 | COc1ccc(-c2[nH]c3nccnc3c2C)cc1 [27 (RP95), 6-(4-Methoxyphenyl)-7-methyl[5H]pyrrolo[2,3-b]pyrazine] | 300 nM | 460 nM |  | 221.6 °C | 
11 | c1coc(-c2cc3nccnc3[nH]2)c1 [1 (RP19), 6-(2-Furyl)[5H]pyrrolo[2,3-b]pyrazine] | 12000 nM | 15000 nM | 9.3 µM | 232.6 °C | 
12 | Cc1c(-c2ccc(Cl)cc2)n(C2CCCCC2)c2nccnc12 [47 (RP99), 6-(4-Chlorophenyl)-7-methylcyclohexyl[5H]pyrrolo[2,3-b]pyrazine] | 10000 nM | 8000 nM | > 100 µM |  | 
13 | COc1cccc(-c2cc3nccnc3[nH]2)c1 [12 (RP10), 6-(3-Methoxyphenyl)[5H]pyrrolo[2,3-b]pyrazine] | 13000 nM | 3200 nM |  | 195.7 °C | 
14 | CC(C)c1c(-c2ccc(Cl)cc2)[nH]c2nccnc12 [37 (RP90), 6-(4-Chlorophenyl)-7-isopropyl[5H]pyrrolo[2,3-b]pyrazine] | 850 nM | 750 nM |  | 208.6 °C | 
15 | Cc1c(C2(c3ccc(Cl)cc3)CC2)[nH]c2nccnc12 [49 (RP130)] |  | 18000 nM |  |  | 
16 | COc1cc(OC)cc(-c2cc3nccnc3[nH]2)c1 [16 (RP21), 6-(3,5-Dimethoxyphenyl)[5H]pyrrolo[2,3-b]pyrazine] |  | 60000 nM | > 100 µM | 216.7 °C | 

Continued, values first:

Row | IC50 (CDK1/cyclin B) | IC50 (GSK-3α/β; 15 μM ATP, Table 1) | IC50 (CDK5/p25) | melting point | IC50 (GSK-3α/β) | SMILES
17 | 700 nM | 500 nM | 0.9 µM |  |  | Cc1c(-c2ccc(OS(=O)(=O)N(C)C)cc2)[nH]c2nccnc12 [31 (RP125), 6-(4-Dimethylaminosulfamoyloxyphenyl)-7-methyl[5H]pyrrolo[2,3-b]pyrazine]
18 | 2300 nM | 1900 nM |  | 244 °C (dec.) |  | Fc1ccc(-c2cc3nccnc3[nH]2)cc1 [18 (RP76), 6-(4-Fluorophenyl)[5H]pyrrolo[2,3-b]pyrazine]
19 |  | 6000 nM | > 100 µM | 256 °C (dec.) |  | Brc1ccc(-c2cc3nccnc3[nH]2)cc1 [21 (RP77), 6-(4-Bromophenyl) [5H]pyrrolo[2,3-b]pyrazine]
20 | 2500 nM | 6500 nM | 3 µM | 250 °C (dec.) |  | Br.Oc1ccccc1-c1cc2nccnc2[nH]1 [11 (RP109), 6-(2-Hydroxyphenyl)[5H]pyrrolo[2,3-b]pyrazine hydrobromide]
21 | 1000 nM | 600 nM |  | 193.8 °C |  | C=CCc1c(-c2ccc(OC)cc2)[nH]c2nccnc12 [34 (RP110), 7-Allyl-6-(4-methoxyphenyl)[5H]pyrrolo[2,3-b]pyrazine]
22 | 1100 nM | 2000 nM |  | 230.2 °C |  | COc1ccc(-c2[nH]c3nccnc3c2C)cc1OC [29 (RP123), 6-(3,4-Methoxyphenyl)-7-methyl[5H]pyrrolo[2,3-b]pyrazine]
23 | 2500 nM |  |  | 258 °C (dec.) |  | Br.Oc1cccc(-c2cc3nccnc3[nH]2)c1 [13 (RP134), 6-(3-Hydroxyphenyl)[5H]pyrrolo[2,3-b]pyrazine hydrobromide]
24 | 1000 nM | 1100 nM | > 100 µM |  |  | COc1ccc(-c2c(C)c3nccnc3n2C2CC2)cc1 [42 (RP104), 6-(4-Methoxyphenyl)-7-methylcyclopropyl[5H]pyrrolo[2,3-b]pyrazine]
25 | > 100000 nM | 27000 nM |  | 216.4 °C |  | c1ccc2c(-c3cc4nccnc4[nH]3)cccc2c1 [6 (RP17), 6-(1-Naphtyl) [5H]pyrrolo[2,3-b]pyrazine]
26 |  | 920 nM |  |  |  | CCCCc1c(-c2ccc(OC)cc2)[nH]c2nccnc12 [38 (RP106), 7-n-Butyl-6-(4-methoxyphenyl)[5H]pyrrolo[2,3-b]pyrazine]
27 | 2000 nM | 1000 nM | > 100 µM | 209.8 °C |  | c1ccc(Cc2c(-c3ccccc3)[nH]c3nccnc23)cc1 [44 (RP92), 7-Benzyl-6-phenyl[5H]pyrrolo[2,3-b]pyrazine]
28 |  | 6800 nM | > 100 µM | 266.3 °C |  | Clc1ccc(-c2[nH]c3nccnc3c2Cc2ccccc2)cc1 [45 (RP91), 7-Benzyl-6-(4-chlorophenyl)[5H]pyrrolo[2,3-b]pyrazine]
29 |  | 2500 nM |  | 178 °C (dec.) |  | COc1ccc(-c2[nH]c3nccnc3c2CCCCl)cc1 [35 (RP126), 7-(3-Chloropropyl)-6-(4-methoxyphenyl)[5H]pyrrolo[2,3-b]pyrazine]
30 |  | 85000 nM | > 100 µM | 231.7 °C |  | COc1cc(-c2cc3nccnc3[nH]2)cc(OC)c1OC [17 (RP16), 6-(3,4,5-Trimethoxyphenyl)[5H]pyrrolo[2,3-b]pyrazine]
31 | 400 nM | 400 nM |  | 188.5 °C |  | CCCc1c(-c2ccc(OC)cc2)[nH]c2nccnc12 [32 (RP127)]
32 | 1800 nM |  |  | 250 °C (dec.) |  | Clc1ccc(-c2cc3nccnc3[nH]2)cc1 [19 (RP14), 6-(4-Chlorophenyl)[5H]pyrrolo[2,3-b]pyrazine]
33 | 250 nM | 520 nM |  | 262 °C (dec.) |  | Br.Cc1c(-c2ccc(O)cc2)[nH]c2nccnc12 [28 (RP96), 6-(4-Hydroxyphenyl)-7-methyl[5H]pyrrolo[2,3-b]pyrazine hydrobromide]
34 |  | 500 nM |  | 204.8 °C |  | COc1ccc(-c2[nH]c3nccnc3c2C(C)C)cc1 [36 (RP102), 7-Isopropyl-6-(4-methoxyphenyl)[5H]pyrrolo[2,3-b]pyrazine]
35 | 3000 nM | 4800 nM |  | 340 °C (dec.) |  | N#Cc1ccc(-c2cc3nccnc3[nH]2)cc1 [23 (RP20), 6-(4-Cyanophenyl) [5H]pyrrolo[2,3-b]pyrazine]
36 | 1200 nM |  |  | 255 °C (dec.) | 1200 nM | Br.Oc1ccc(-c2cc3nccnc3[nH]2)cc1 [15 (RP26), 6-(4-Hydroxyphenyl) [5H]pyrrolo[2,3-b]pyrazine hydrobromide]
37 | 30000 nM | 1000 nM |  | 189.7 °C |  | Clc1ccc(C2(c3cc4nccnc4[nH]3)CC2)cc1 [9 (RP124), 6-[1-(4-Chlorophenyl)-1-cyclopropyl][5H]pyrrolo[2,3-b]pyrazine]
38 |  | 1700 nM |  | 260 °C (dec.) |  | Cc1c(-c2ccc(Cl)cc2)[nH]c2nccnc12 [30 (RP80), 6-(4-Chlorophenyl)-7-methyl[5H]pyrrolo[2,3-b]pyrazine]
39 | 69000 nM | > 100000 nM |  | 261.8 °C |  | Cc1cnc2cc(-c3ccccc3)[nH]c2n1 [8 (RP18), 3-Methyl-6-phenyl[5H]pyrrolo[2,3-b]pyrazine]
